Data as given in publication PMC5100701 (Bioconjugate chemistry, 2016).
Read-outs that look alike come from different tables or passages of the source.

Experiments:
human MMP-12 [1] = target: T1, human MMP-12 (Homo sapiens, UniProt P39900); conditions: read-out: Ki toward human MMP-12; cited from earlier work
human MMP-12 [2] = target: T1, human MMP-12; assay: ability to block MMP-12 activity in presence of human serum albumin; format: biochemical; conditions: hSA 5 μM
atherosclerotic plaque = conditions: mouse model of atherosclerosis; cited from earlier work
human MMP-12 [3] = target: T1, human MMP-12; assay: in vitro binding; format: biochemical; conditions: read-out: Ki (nM)/hMMP12; 50 mM Tris/HCl buffer, pH 6.8, 10 mM CaCl2, 25 °C; mean ± SD of three experiments
[4] = biodistribution: tissue fluorescence in harvested organs; format: in vivo, C57BL/6 mice; conditions: organs harvested 4h post-injection, 1 nmol injected
[5] = blood clearance after intravenous injection in mice; format: in vivo; conditions: C57BL/6 mice, 1 nmol injected, n=3, 4h post-injection
[6] = LC/MS analysis of mouse urine; format: in vivo, C57BL/6 mice; conditions: mouse urine 4h after injection

T1 sequence (P39900 106-470): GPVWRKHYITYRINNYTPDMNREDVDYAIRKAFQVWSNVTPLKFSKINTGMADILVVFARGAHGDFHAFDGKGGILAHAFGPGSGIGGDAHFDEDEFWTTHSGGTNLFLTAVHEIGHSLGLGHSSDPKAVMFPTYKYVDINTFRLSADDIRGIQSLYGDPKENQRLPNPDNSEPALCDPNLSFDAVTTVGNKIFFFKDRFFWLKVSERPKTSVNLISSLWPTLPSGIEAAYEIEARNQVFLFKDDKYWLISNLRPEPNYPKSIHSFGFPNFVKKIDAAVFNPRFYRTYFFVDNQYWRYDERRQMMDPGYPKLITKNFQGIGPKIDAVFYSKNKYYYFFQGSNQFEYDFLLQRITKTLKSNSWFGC

| SMILES | Ki (human MMP-12 [1]) | shift of Ki in presence of human serum albumin (human MMP-12 [2]) | effect on atherosclerotic plaque (atherosclerotic plaque) | Ki (human MMP-12 [3]) | tissue fluorescence in liver, spleen, kidneys and lungs [4] | percentage of injected dose remaining in the bloodstream 4h post-injection [5] | conversion into a second metabolite in urine [6] |
| --- | --- | --- | --- | --- | --- | --- | --- |
| NC(=O)[C@H](CCC(=O)O)NC(=O)[C@H](CCC(=O)O)NC(=O)[C@H](Cc1cc(-c2ccc(-c3cccc(Cl)c3)cc2)no1)CP(=O)(O)c1ccc(Br)cc1 [RXP470.1, reference compound] | 0.26 nM | 8.5 fold | inhibit atherosclerotic plaque growth | 0.26 ± 0.05 nM |  |  |  |
| CC[N+]1=C(C=CC=CC=C2N(CCCCCC(=O)NCCOCCOCCNC(=O)[C@H](CCC(=O)O)NC(=O)[C@H](CCC(=O)O)NC(=O)[C@H](Cc3cc(-c4ccc(-c5cccc(Cl)c5)cc4)no3)CP(=O)(O)c3ccc(Br)cc3)c3ccc4c(S(=O)(=O)O)cc(S(=O)(=O)[O-])cc4c3C2(C)C)C(C)(C)c2c1ccc1c(S(=O)(=O)O)cc(S(=O)(=O)O)cc21 [probe 1] |  | 88 fold |  |  | higher fluorescence signals in the kidneys relative to the liver | 25.1±2.9 %ID |  |
| CC1(C)C(=CC=C2CCCC(C=CC3=[N+](CCCCCC(=O)NCCOCCOCCNC(=O)[C@H](CCC(=O)O)NC(=O)[C@H](CCC(=O)O)NC(=O)[C@H](Cc4cc(-c5ccc(-c6cccc(Cl)c6)cc5)no4)CP(=O)(O)c4ccc(Br)cc4)c4ccc(S(=O)(=O)O)cc4C3(C)C)=C2Oc2ccc(S(=O)(=O)O)cc2)N(CCCCS(=O)(=O)O)c2ccc(S(=O)(=O)[O-])cc21 [probe 4] |  |  |  |  | cleared by the kidneys, but its uptake by the liver is not negligible |  | about 50% |
